From patent US11813239B2, “Compositions and methods for improving cardiac structure and/or function” (Wisconsin Alumni Research Foundation, priority 2020, dated 2023)

Columns and labels:
cardiomyocytes = test: Immunostaining (pH3, Aurora B), WGA and trichrome staining after MI in P7 mice; conditions: MI at P7, dimethyl malonate 100 mg/kg daily for 2 weeks from birth, 21 days post-MI
Description: We then analyzed the hearts following injury to determine whether malonate results in prolongation of the neonatal regenerative window (FIG. 5A). To examine whether malonate stimulates cardiomyocyte proliferation, we performed MI in 7-day-old mice and analyzed their hearts at 7 days post-MI by immunostaining for markers of proliferation.
Neonatal mice at postnatal day 1 (P1) or day 7 (P7) were used for myocardial infarction (MI) surgery. Neonatal mice were subjected to MI surgeries as previously described. Briefly, neonates were anesthetized by hypothermia on ice. Lateral thoracotomy at the fourth intercostal space was performed by blunt dissection of the intercostal muscles after skin incision. A C-1 tapered needle attached to a 6-0 prolene suture (Ethicon Inc., Bridgewater, N.J.) was passed through the mid-ventricle below the left anterior descending coronary artery (LAD) and tied off to induce MI. The prolene suture was used to suture the ribs together and seal the chest wall incisions, and the skin was closed using adhesive glue (3M). The mice then were warmed on a heating pad until recovery. Sham-operated mice underwent the same procedure including hypothermic anesthesia, but not LAD ligation.
Neonatal mice were weighed and injected daily with either saline, 100 mg/kg dimethyl succinate (Sigma), 100 mg/kg dimethyl malonate (Sigma), or 100 μg/kg Atpenin A5 (Enzo Life Sciences). Dimethyl succinate and dimethyl malonate were dissolved in saline. Stock solution of Atpenin A5 at 0.1 mg/ml was initially prepared by dissolving in DMSO (Sigma) and then further diluted with saline before injection. Saline was used as a vehicle control for all experiments.
Hearts were harvested and fixed in 4% paraformaldehyde (PFA) in PBS solution overnight at 4° C., processed for paraffin embedding, and sectioned in intervals. Masson's trichrome staining was performed according to the manufacture's protocol (Newcomer Supply, Middleton, WI). Scar size measurements were quantified from at least 3 sections of the heart from ligature to apex. ImageJ was used to quantify the fibrotic scar, and the average scar area for each heart was plotted.
We injected dimethyl malonate (100 mg/kg, daily) in neonatal mice directly after birth for 2 weeks with an MI performed once the mice reached P7.

[1] = test system: adult mouse heart following myocardial infarction; test: Echocardiography after adult MI, malonate treatment starting 1-week post-MI; conditions: for % EF (Ejection Fraction) / % FS (Fractional Shortening) / LV Mass (Left Ventricular Mass, Anatomical Weight) / LV Vol; d (Left Ventricular Volume; diastole) / LV Vol; s (Left Ventricular Volume; systole) / LVAWD (Left Ventricle Anterior Wall Thickness Diastole) / LVAWS (Left Ventricle Anterior Wall Thickness Systole) / LVIDD (Left Ventricle Internal Diameter Diastole) / LVIDS (Left Ventricle Internal Diameter Systole) / LVPWD (Left Ventricle Posterior Wall Thickness Diastole) / LVPWS (Left Ventricle Posterior Wall Thickness Systole): adult mice, mean ± SE
Description: Adult male mice (8-week-old) were subjected to MI by ligation of the proximal aspect of the LAD coronary artery. In brief, mice were anaesthetized using 3% isoflurane, then mice were intubated with PE50 tubing and placed on a mouse ventilator at 120-130 breaths per minute with a stroke volume of 150 microliters and maintained on 2% isoflurane. A left lateral incision through the fourth intercostal space was made to expose the heart. After visualizing the left coronary artery, 7-0 suture was placed through the myocardium in the anterolateral wall and secured as previously describer^17,18. Coronary artery entrapment was confirmed by observing blanching of the distal circulation (ventricular apex). ECG was used to confirm MI by noting ST segment changes. The lungs were over inflated, and the ribs and muscle layers were closed by absorbable sutures. The skin is closed by additional suturing using 6-0 nylon. The mouse was recovered from the anesthesia and extubated.
Saline was used as a vehicle control for all experiments. […] Adult mice were injected intraperitoneally daily with either saline or 100 mg/kg dimethyl malonate post-MI for 2 or 4 weeks.
Transthoracic echocardiography was performed by using a Visual Sonics 770 ultrasonograph with a 25-MHz transducer (Visual Sonics, Toronto) as described previously^19. Mice were lightly anesthetized with 1% isoflurane and maintained on a heated platform. Two-dimensionally guided M-mode images from a parasternal long axis (PLAX) of the left ventricle (LV) were acquired at the tip of the papillary muscles. Wall thickness and chamber diameters were measured in both diastole and systole. Fractional shortening was calculated as (LVDd−LVDs)/LVDd×100, where LVDd is LV diameter in diastole and LVDs is LV diameter in systole. Ejection fraction was calculated as [(7.0/(2.4+LVDd)(LVDd)^3−(7.0/(2.4+LVDs)(LVDs)^3/(7.0/(2.4+LVDd)(LVDd)^3×100 and LV mass was calculated by using the formula [1.05×((Posterior Walldiastole+Anterior Walldiastole+LVDd)^3−(LVDd)^3)]. All parameters were measured over at least three consecutive cycles.
To determine whether SDH inhibitors can promote a regenerative response following the establishment of infarction, we performed MI in 8-week-old mice and started malonate treatment at 1-week post-MI (FIG. 20A). […] Mice were then randomized and treated with saline or malonate for a period of 4 weeks, and hearts were harvested at 6 weeks post-MI (FIG. 20A).

[2] = MI, 2 WPMI, dimethyl malonate 100 mg/kg daily for 4 weeks starting 1 WPMI
[3] = MI, 3 WPMI, dimethyl malonate 100 mg/kg daily for 4 weeks starting 1 WPMI
[4] = MI, 4 WPMI, dimethyl malonate 100 mg/kg daily for 4 weeks starting 1 WPMI
[5] = MI, 6 WPMI, dimethyl malonate 100 mg/kg daily for 4 weeks starting 1 WPMI
[6] = malonate group, MI, 1 WPMI (before start of dosing)
[7] = malonate group, Pre (before MI and dosing)

COC(=O)CC(=O)OC [Malonate, dimethyl malonate]
cardiomyocyte cell size (wheat germ agglutinin staining) (cardiomyocytes): significant reduction in cardiomyocyte cell size
structural regeneration and fibrosis (trichrome staining) (cardiomyocytes; vs saline controls): complete heart regeneration
cardiac function by echocardiography ([1]; adult MI, malonate for 4 weeks starting 1-week post-MI, 4-weeks and 6-weeks post-MI): significant increase in cardiac function
% EF (Ejection Fraction) [1, 2]: 34.537 ± 4.592%
% FS (Fractional Shortening) [1, 2]: 16.507 ± 2.337%
LV Mass (Left Ventricular Mass, Anatomical Weight) [1, 2]: 118.559 ± 20.724 mg
LV Vol; d (Left Ventricular Volume; diastole) [1, 2]: 97.776 ± 23.854 µL
LV Vol; s (Left Ventricular Volume; systole) [1, 2]: 69.099 ± 20.899 µL
LVAWD (Left Ventricle Anterior Wall Thickness Diastole) [1, 2]: 0.698 ± 0.021 mm
LVAWS (Left Ventricle Anterior Wall Thickness Systole) [1, 2]: 0.833 ± 0.016 mm
LVIDD (Left Ventricle Internal Diameter Diastole) [1, 2]: 4.458 ± 0.467 mm
LVIDS (Left Ventricle Internal Diameter Systole) [1, 2]: 3.772 ± 0.497 mm
LVPWD (Left Ventricle Posterior Wall Thickness Diastole) [1, 2]: 0.671 ± 0.023 mm
LVPWS (Left Ventricle Posterior Wall Thickness Systole) [1, 2]: 0.814 ± 0.012 mm
% EF (Ejection Fraction) [1, 3]: 38.518 ± 3.865%
% FS (Fractional Shortening) [1, 3]: 18.642 ± 2.058%
LV Mass (Left Ventricular Mass, Anatomical Weight) [1, 3]: 90.090 ± 11.827 mg
LV Vol; d (Left Ventricular Volume; diastole) [1, 3]: 78.984 ± 13.627 µL
LV Vol; s (Left Ventricular Volume; systole) [1, 3]: 50.781 ± 11.724 µL
LVAWD (Left Ventricle Anterior Wall Thickness Diastole) [1, 3]: 0.623 ± 0.024 mm
LVAWS (Left Ventricle Anterior Wall Thickness Systole) [1, 3]: 0.791 ± 0.028 mm
LVIDD (Left Ventricle Internal Diameter Diastole) [1, 3]: 4.139 ± 0.296 mm
LVIDS (Left Ventricle Internal Diameter Systole) [1, 3]: 3.393 ± 0.326 mm
LVPWD (Left Ventricle Posterior Wall Thickness Diastole) [1, 3]: 0.613 ± 0.017 mm
LVPWS (Left Ventricle Posterior Wall Thickness Systole) [1, 3]: 0.764 ± 0.018 mm
% EF (Ejection Fraction) [1, 4]: 45.375 ± 5.597%
% FS (Fractional Shortening) [1, 4]: 24.529 ± 3.624%
LV Mass (Left Ventricular Mass, Anatomical Weight) [1, 4]: 90.726 ± 13.717 mg
LV Vol; d (Left Ventricular Volume; diastole) [1, 4]: 70.697 ± 15.089 µL
LV Vol; s (Left Ventricular Volume; systole) [1, 4]: 47.342 ± 10.954 µL
LVAWD (Left Ventricle Anterior Wall Thickness Diastole) [1, 4]: 0.687 ± 0.039 mm
LVAWS (Left Ventricle Anterior Wall Thickness Systole) [1, 4]: 0.809 ± 0.051 mm
LVIDD (Left Ventricle Internal Diameter Diastole) [1, 4]: 4.136 ± 0.349 mm
LVIDS (Left Ventricle Internal Diameter Systole) [1, 4]: 2.958 ± 0.419 mm
LVPWD (Left Ventricle Posterior Wall Thickness Diastole) [1, 4]: 0.962 ± 0.287 mm
LVPWS (Left Ventricle Posterior Wall Thickness Systole) [1, 4]: 1.015 ± 0.214 mm
% EF (Ejection Fraction) [1, 5]: 47.208 ± 4.087%
% FS (Fractional Shortening) [1, 5]: 23.535 ± 2.509%
LV Mass (Left Ventricular Mass, Anatomical Weight) [1, 5]: 107.845 ± 11.076 mg
LV Vol; d (Left Ventricular Volume; diastole) [1, 5]: 75.865 ± 9.652 µL
LV Vol; s (Left Ventricular Volume; systole) [1, 5]: 40.253 ± 6.696 µL
LVAWD (Left Ventricle Anterior Wall Thickness Diastole) [1, 5]: 0.718 ± 0.011 mm
LVAWS (Left Ventricle Anterior Wall Thickness Systole) [1, 5]: 0.831 ± 0.019 mm
LVIDD (Left Ventricle Internal Diameter Diastole) [1, 5]: 4.113 ± 0.228 mm
LVIDS (Left Ventricle Internal Diameter Systole) [1, 5]: 3.146 ± 0.214 mm
LVPWD (Left Ventricle Posterior Wall Thickness Diastole) [1, 5]: 0.738 ± 0.018 mm
LVPWS (Left Ventricle Posterior Wall Thickness Systole) [1, 5]: 0.846 ± 0.017 mm
% EF (Ejection Fraction) [1, 6]: 35.760 ± 3.523%
% FS (Fractional Shortening) [1, 6]: 17.077 ± 1.873%
LV Mass (Left Ventricular Mass, Anatomical Weight) [1, 6]: 105.118 ± 13.726 mg
LV Vol; d (Left Ventricular Volume; diastole) [1, 6]: 87.566 ± 16.492 µL
LV Vol; s (Left Ventricular Volume; systole) [1, 6]: 57.371 ± 11.845 µL
LVAWD (Left Ventricle Anterior Wall Thickness Diastole) [1, 6]: 0.651 ± 0.018 mm
LVAWS (Left Ventricle Anterior Wall Thickness Systole) [1, 6]: 0.788 ± 0.016 mm
LVIDD (Left Ventricle Internal Diameter Diastole) [1, 6]: 4.329 ± 0.343 mm
LVIDS (Left Ventricle Internal Diameter Systole) [1, 6]: 3.603 ± 0.326 mm
LVPWD (Left Ventricle Posterior Wall Thickness Diastole) [1, 6]: 0.665 ± 0.033 mm
LVPWS (Left Ventricle Posterior Wall Thickness Systole) [1, 6]: 0.838 ± 0.025 mm
% EF (Ejection Fraction) [1, 7]: 69.832 ± 3.238%
% FS (Fractional Shortening) [1, 7]: 38.447 ± 2.452%
LV Mass (Left Ventricular Mass, Anatomical Weight) [1, 7]: 59.124 ± 6.101 mg
LV Vol; d (Left Ventricular Volume; diastole) [1, 7]: 32.452 ± 4.967 µL
LV Vol; s (Left Ventricular Volume; systole) [1, 7]: 10.208 ± 2.260 µL
LVAWD (Left Ventricle Anterior Wall Thickness Diastole) [1, 7]: 0.704 ± 0.023 mm
LVAWS (Left Ventricle Anterior Wall Thickness Systole) [1, 7]: 0.838 ± 0.024 mm
LVIDD (Left Ventricle Internal Diameter Diastole) [1, 7]: 2.872 ± 0.174 mm
LVIDS (Left Ventricle Internal Diameter Systole) [1, 7]: 1.779 ± 0.158 mm
LVPWD (Left Ventricle Posterior Wall Thickness Diastole) [1, 7]: 0.717 ± 0.020 mm
LVPWS (Left Ventricle Posterior Wall Thickness Systole) [1, 7]: 0.829 ± 0.017 mm
